From PubChem BioAssay AID248 (DTP/NCI, 2004)
Several values for one entry are separate records, joined by “and”; a condition that tells them apart may be missing. Identical values can stand only once. Inconclusive results and toxic doses are left out.

Test system: L1210 leukemia ip in BDF1 mice, survival T/C
Assay: NCI In Vivo Anticancer Drug Screen. Data for tumor model L1210 Leukemia (intraperitoneal) in B6D2F1 (BDF1) mice
Conditions: endpoint: mean survival time, higher = longer survival
Description: The antitumor activity of compounds was measured in mice bearing transplantable tumors. Survival or tumor size were measured and the results are expressed as the measurement made in the treated group (T) divided by the measurement made in the vehicle treated control group (C). The tumor model used in this assay is L1210 Leukemia (intraperitoneal) in B6D2F1 (BDF1) mice

[1] = dose: 100.0 mg/kg/injection, schedule: Q04DX002 (ip), vehicle: saline with Tween-80
[2] = dose: 200.0 mg/kg/injection, schedule: Q04DX002 (ip), vehicle: saline with Tween-80
[3] = dose: 400.0 mg/kg/injection, schedule: Q04DX002 (ip), vehicle: saline with Tween-80
[4] = dose: 100.0 mg/kg/injection, schedule: Q01DX001 (ip), vehicle: saline
[5] = dose: 200.0 mg/kg/injection, schedule: Q01DX001 (ip), vehicle: saline
[6] = dose: 400.0 mg/kg/injection, schedule: Q01DX001 (ip), vehicle: saline
[7] = dose: 100.0 mg/kg/injection, schedule: Q01DX009 (ip), vehicle: saline
[8] = dose: 200.0 mg/kg/injection, schedule: Q01DX009 (ip), vehicle: saline
[9] = dose: 50.0 mg/kg/injection, schedule: Q01DX009 (ip), vehicle: saline
[10] = dose: 100.0 mg/kg/injection, schedule: Q04DX003 (ip), vehicle: saline
[11] = dose: 200.0 mg/kg/injection, schedule: Q04DX003 (ip), vehicle: saline

COc1cc(OC)cc(-n2cccc2)c1
T/C [1]: 90 % of control | T/C [2]: 97 % of control | T/C [3]: 87 % of control

O=C(O)O.[Co].[NH-]CC[N-]CC[N-]CC[NH-]
T/C (dose: 50.0 mg/kg/injection, schedule: Q01DX001 (ip), vehicle: saline): 97 % of control | T/C [4]: 108 % of control | T/C [5]: 92 % of control | T/C [6]: 100 % of control

CS(=O)(=O)N(CC(=O)O)Cc1cccc(Cl)c1
T/C (dose: 100.0 mg/kg/injection, schedule: Q01DX009 (ip), vehicle: other): 100 % of control | T/C (dose: 100.0 mg/kg/injection, schedule: Q04DX003 (ip), vehicle: other): 100 % of control | T/C (dose: 200.0 mg/kg/injection, schedule: Q01DX009 (ip), vehicle: other): 101 % of control | T/C (dose: 200.0 mg/kg/injection, schedule: Q04DX003 (ip), vehicle: other): 102 % of control | T/C (dose: 400.0 mg/kg/injection, schedule: Q01DX009 (ip), vehicle: other): 97 % of control | T/C (dose: 400.0 mg/kg/injection, schedule: Q04DX003 (ip), vehicle: other): 103 % of control

CCOC(=O)/C(C#N)=N/O
T/C (dose: 18.8 mg/kg/injection, schedule: Q01DX009 (ip), vehicle: saline): 94 % of control | T/C (dose: 18.8 mg/kg/injection, schedule: Q04DX003 (ip), vehicle: saline): 95 % of control | T/C (dose: 37.5 mg/kg/injection, schedule: Q01DX009 (ip), vehicle: saline): 91 % of control | T/C (dose: 37.5 mg/kg/injection, schedule: Q04DX003 (ip), vehicle: saline): 97 % of control | T/C (dose: 75.0 mg/kg/injection, schedule: Q04DX003 (ip), vehicle: saline): 97 % of control

O=C1CC2CC1C1C(=O)OC(=O)C21 (configuration not stated)
T/C (dose: 75.0 mg/kg/injection, schedule: Q01DX001 (ip), vehicle: acetone): 91 % of control | T/C (dose: 150.0 mg/kg/injection, schedule: Q01DX001 (ip), vehicle: acetone): 104 % of control | T/C (dose: 300.0 mg/kg/injection, schedule: Q01DX001 (ip), vehicle: acetone): 98 % of control

CC(C)N(C(=O)Nc1cc(C(F)(F)F)ccc1Cl)C1CCCCC1
T/C (dose: 100.0 mg/kg/injection, schedule: Q01DX001 (ip), vehicle: carboxymethylcellulose (CMC)): 95 % of control | T/C (dose: 100.0 mg/kg/injection, schedule: Q01DX009 (ip), vehicle: carboxymethylcellulose (CMC)): 92 % of control and 88 % of control | T/C (dose: 100.0 mg/kg/injection, schedule: Q04DX002 (ip), vehicle: carboxymethylcellulose (CMC)): 97 % of control | T/C (dose: 100.0 mg/kg/injection, schedule: Q04DX003 (ip), vehicle: carboxymethylcellulose (CMC)): 96 % of control | T/C (dose: 200.0 mg/kg/injection, schedule: Q01DX001 (ip), vehicle: carboxymethylcellulose (CMC)): 90 % of control | T/C (dose: 200.0 mg/kg/injection, schedule: Q01DX009 (ip), vehicle: carboxymethylcellulose (CMC)): 93 % of control and 100 % of control | T/C (dose: 200.0 mg/kg/injection, schedule: Q04DX002 (ip), vehicle: carboxymethylcellulose (CMC)): 98 % of control and 108 % of control | T/C (dose: 200.0 mg/kg/injection, schedule: Q04DX003 (ip), vehicle: carboxymethylcellulose (CMC)): 96 % of control | T/C (dose: 400.0 mg/kg/injection, schedule: Q01DX001 (ip), vehicle: carboxymethylcellulose (CMC)): 93 % of control | T/C (dose: 400.0 mg/kg/injection, schedule: Q01DX009 (ip), vehicle: carboxymethylcellulose (CMC)): 95 % of control | T/C (dose: 400.0 mg/kg/injection, schedule: Q04DX002 (ip), vehicle: carboxymethylcellulose (CMC)): 87 % of control and 90 % of control | T/C (dose: 400.0 mg/kg/injection, schedule: Q04DX003 (ip), vehicle: carboxymethylcellulose (CMC)): 91 % of control

CC1CN=C(c2ccc(NC(=O)c3ccc(C(=O)Nc4ccc(C5=NCC(C)CN5)cc4)nc3)cc2)NC1 (configuration not stated)
T/C (dose: 2.0 mg/kg/injection, schedule: Q01DX001 (ip), vehicle: water): 97 % of control and 101 % of control | T/C (dose: 4.0 mg/kg/injection, schedule: Q01DX001 (ip), vehicle: water): 101 % of control and 106 % of control | T/C (dose: 4.0 mg/kg/injection, schedule: Q01DX015 (ip), vehicle: water): 250 % of control and 288 % of control | T/C (dose: 6.0 mg/kg/injection, schedule: Q01DX001 (ip), vehicle: water): 106 % of control and 115 % of control

CC(C)c1ccc(N2P(=O)(N(C)C)N(c3ccc(C(C)C)cc3)P2(=O)N(C)C)cc1 (configuration not stated)
T/C (dose: 100.0 mg/kg/injection, schedule: Q01DX009 (ip), vehicle: Klucel (hydroxypropylcellulose) (HPC)): 95 % of control | T/C (dose: 200.0 mg/kg/injection, schedule: Q01DX009 (ip), vehicle: Klucel (hydroxypropylcellulose) (HPC)): 92 % of control | T/C (dose: 400.0 mg/kg/injection, schedule: Q01DX009 (ip), vehicle: Klucel (hydroxypropylcellulose) (HPC)): 98 % of control

O=[N+]([O-])c1ccc(/C=C/c2ccccc2)c(Cl)c1
T/C (dose: 100.0 mg/kg/injection, schedule: Q01DX001 (ip), vehicle: saline with Tween-80): 95 % of control | T/C (dose: 200.0 mg/kg/injection, schedule: Q01DX001 (ip), vehicle: saline with Tween-80): 102 % of control | T/C (dose: 400.0 mg/kg/injection, schedule: Q01DX001 (ip), vehicle: saline with Tween-80): 95 % of control

CC1(C)C2CC3C(=CCC4C(=O)C5CC=C6C(CC7CC6C7(C)C)C5C(=O)C43)C1C2 (configuration not stated)
T/C (dose: 100.0 mg/kg/injection, schedule: Q01DX001 (ip), vehicle: Klucel (hydroxypropylcellulose) (HPC)): 103 % of control | T/C (dose: 200.0 mg/kg/injection, schedule: Q01DX001 (ip), vehicle: Klucel (hydroxypropylcellulose) (HPC)): 93 % of control | T/C (dose: 400.0 mg/kg/injection, schedule: Q01DX001 (ip), vehicle: Klucel (hydroxypropylcellulose) (HPC)): 93 % of control

CCCCCCCCN/N=C(/C)CCCCCO
T/C [4]: 98 % of control | T/C [5]: 103 % of control | T/C [6]: 103 % of control

OC/C(=N/Nc1ccc2ccccc2n1)c1ccccc1
T/C (dose: 100.0 mg/kg/injection, schedule: Q01DX009 (ip), vehicle: saline with Tween-80): 94 % of control | T/C (dose: 100.0 mg/kg/injection, schedule: Q04DX003 (ip), vehicle: saline with Tween-80): 93 % of control | T/C (dose: 200.0 mg/kg/injection, schedule: Q01DX009 (ip), vehicle: saline with Tween-80): 93 % of control | T/C (dose: 200.0 mg/kg/injection, schedule: Q04DX003 (ip), vehicle: saline with Tween-80): 100 % of control | T/C (dose: 400.0 mg/kg/injection, schedule: Q01DX009 (ip), vehicle: saline with Tween-80): 93 % of control | T/C (dose: 400.0 mg/kg/injection, schedule: Q04DX003 (ip), vehicle: saline with Tween-80): 89 % of control

CSc1ccccc1N.[Cl][Cu][Cl]
T/C (dose: 5.0 mg/kg/injection, schedule: Q01DX001 (ip), vehicle: saline): 103 % of control | T/C (dose: 10.0 mg/kg/injection, schedule: Q01DX001 (ip), vehicle: saline): 115 % of control

Nc1cc(S(=O)(=O)O)cc2cc(S(=O)(=O)O)cc(S(=O)(=O)O)c12
T/C [7]: 107 % of control | T/C [8]: 104 % of control | T/C (dose: 400.0 mg/kg/injection, schedule: Q01DX009 (ip), vehicle: saline): 100 % of control

C[N+]1(C)C2CC(=O)CC1C1CC12 (configuration not stated) (tested in a mixture with another compound)
T/C [9]: 106 % of control | T/C [7]: 108 % of control | T/C [10]: 94 % of control | T/C [8]: 90 % of control | T/C [11]: 100 % of control

O=C(Oc1c(Cl)cc([N+](=O)[O-])cc1[N+](=O)[O-])Sc1ccccc1
T/C [1]: 103 % of control | T/C [2]: 100 % of control | T/C [3]: 100 % of control

NC1CCC(C(=O)O)NC1 (configuration not stated)
T/C [10]: 104 % of control | T/C [11]: 107 % of control | T/C (dose: 400.0 mg/kg/injection, schedule: Q04DX003 (ip), vehicle: saline): 109 % of control

Cc1nc2[nH]c(=S)[nH]c(=O)c2nc1C
T/C (dose: 16.0 mg/kg/injection, schedule: Q01DX Z (ip), vehicle: methylcellulose (MC)): 95 % of control | T/C (dose: 31.0 mg/kg/injection, schedule: Q01DX Z (ip), vehicle: methylcellulose (MC)): 119 % of control | T/C (dose: 62.0 mg/kg/injection, schedule: Q01DX Z (ip), vehicle: methylcellulose (MC)): 89 % of control | T/C (dose: 125.0 mg/kg/injection, schedule: Q01DX Z (ip), vehicle: methylcellulose (MC)): 95 % of control and 101 % of control | T/C (dose: 250.0 mg/kg/injection, schedule: Q01DX Z (ip), vehicle: methylcellulose (MC)): 112 % of control | T/C (dose: 500.0 mg/kg/injection, schedule: Q01DX Z (ip), vehicle: methylcellulose (MC)): 89 % of control

O=P(CCC(F)(F)C(F)(F)C(F)(F)C(F)(F)C(F)(F)C(F)(F)C(F)(F)F)(N1CC1)N1CC1
T/C (dose: 75.0 mg/kg/injection, schedule: Q01DX001 (ip), vehicle: carboxymethylcellulose (CMC)): 108 % of control

CC(C)(C)CN
T/C [9]: 98 % of control | T/C [7]: 93 % of control | T/C [10]: 102 % of control | T/C [11]: 98 % of control
